Columns and labels:
Test in all cases: relative viability (nuclei count vs DMSO), 5 days (fraction); higher = more cells survive
Vismodegib + Decitabine = compound: CS(=O)(=O)c1ccc(C(=O)Nc2ccc(Cl)c(-c3ccccn3)c2)c(Cl)c1 [Vismodegib] + Nc1ncn([C@H]2C[C@H](O)[C@@H](CO)O2)c(=O)n1 [Decitabine] (partner 2 µM)
In short: (§1)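 Cells from lung cancer lines were seeded into 1536-well plates and, one day later, dosed by pin tool. Treatments were either a single drug or a fixed dose of an anchor drug with five library-drug doses (not always all listed) in √10 steps. After 5 days, nuclei were stained in a one-step fixation (final 0.05% Triton X-100, 1% formaldehyde, 1 ug/ml Hoechst) and counted on 4× images, and relative viability is the treated-to-vehicle nuclei ratio, as the median of duplicate plates.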

VE-821 + Foretinib = compound: CS(=O)(=O)c1ccc(-c2cnc(N)c(C(=O)Nc3ccccc3)n2)cc1 [VE-821] + COc1cc2c(Oc3ccc(NC(=O)C4(C(=O)Nc5ccc(F)cc5)CC4)cc3F)ccnc2cc1OCCCN1CCOCC1 [Foretinib] (partner 0.25 µM)
In short: as §1

Vismodegib + Tozasertib = compound: CS(=O)(=O)c1ccc(C(=O)Nc2ccc(Cl)c(-c3ccccn3)c2)c(Cl)c1 [Vismodegib] + Cc1cc(Nc2cc(N3CCN(C)CC3)nc(Sc3ccc(NC(=O)C4CC4)cc3)n2)n[nH]1 [Tozasertib] (partner 0.1 µM)
In short: as §1

VE-821 + Lapatinib = compound: CS(=O)(=O)c1ccc(-c2cnc(N)c(C(=O)Nc3ccccc3)n2)cc1 [VE-821] + CS(=O)(=O)CCNCc1ccc(-c2ccc3ncnc(Nc4ccc(OCc5cccc(F)c5)c(Cl)c4)c3c2)o1 [Lapatinib] (partner 2 µM)
In short: as §1

Cell Line | relative viability (Vismodegib + Decitabine; first compound 0.08 µM) | relative viability (Vismodegib + Decitabine; first compound 0.253 µM) | relative viability (Vismodegib + Decitabine; first compound 0.8 µM) | relative viability (Vismodegib + Decitabine; first compound 2.53 µM) | relative viability (Vismodegib + Decitabine; first compound 8 µM) | relative viability (VE-821 + Foretinib; first compound 0.08 µM) | relative viability (VE-821 + Foretinib; first compound 0.253 µM) | relative viability (VE-821 + Foretinib; first compound 0.8 µM) | relative viability (VE-821 + Foretinib; first compound 2.53 µM) | relative viability (VE-821 + Foretinib; first compound 8 µM) | relative viability (Vismodegib + Tozasertib; first compound 0.08 µM) | relative viability (Vismodegib + Tozasertib; first compound 0.253 µM) | relative viability (Vismodegib + Tozasertib; first compound 0.8 µM) | relative viability (Vismodegib + Tozasertib; first compound 2.53 µM) | relative viability (Vismodegib + Tozasertib; first compound 8 µM) | relative viability (VE-821 + Lapatinib; first compound 0.08 µM) | relative viability (VE-821 + Lapatinib; first compound 0.253 µM) | relative viability (VE-821 + Lapatinib; first compound 0.8 µM) | relative viability (VE-821 + Lapatinib; first compound 2.53 µM) | relative viability (VE-821 + Lapatinib; first compound 8 µM)
201T | 0.826 | 0.813 | 0.869 | 0.848 | 0.846 | 1.09 | 1.17 | 0.784 | 0.968 | 0.6 | 0.914 | 0.919 | 0.987 | 0.946 | 0.966 | 1.1 | 0.937 | 0.966 | 1.01 | 0.976
A549 | 0.268 | 0.228 |  | 0.263 | 0.205 | 0.996 | 0.93 | 0.858 | 0.861 | 0.713 |  |  |  |  |  | 1.14 | 0.849 | 0.929 | 0.829 | 0.475
A-427 | 0.515 | 0.569 | 0.546 | 0.499 | 0.582 | 1.34 | 0.97 | 0.991 | 1.05 | 0.561 | 0.233 | 0.193 | 0.22 | 0.196 | 0.21 | 1.08 | 0.998 | 1.06 | 1.1 | 0.676
ABC-1 | 1.06 | 1.01 | 0.999 | 1.2 | 1.01 | 1.41 | 0.877 | 0.859 | 1.01 | 0.756 | 0.15 | 0.153 | 0.182 | 0.184 | 0.158 | 1.3 | 1.32 | 0.811 | 0.953 | 0.994
BEN | 0.684 | 0.691 | 0.648 | 0.697 | 0.782 | 0.685 | 0.574 | 0.623 | 0.581 | 0.76 | 0.545 | 0.555 | 0.513 | 0.605 | 0.466 | 0.845 | 0.775 | 0.657 | 0.8 | 0.662
CAL-12T |  |  |  |  |  | 1.27 | 1.09 | 1.01 | 0.976 | 0.92 | 0.301 | 0.28 | 0.321 | 0.35 | 0.328 | 0.656 | 0.7 | 0.637 | 0.839 | 0.456
COR-L23 | 0.413 | 0.429 | 0.505 | 0.441 | 0.41 | 1.09 | 0.974 | 0.915 | 1.27 | 0.917 | 0.203 | 0.218 | 0.181 | 0.177 | 0.168 | 1.09 | 0.827 | 1.01 | 1.12 | 0.94
COR-L 105 | 0.589 | 0.593 | 0.676 | 0.708 | 0.627 | 1.06 | 1.15 | 0.937 | 0.731 | 0.759 | 0.357 | 0.335 | 0.25 | 0.374 | 0.391 | 0.383 | 0.354 | 0.341 | 0.351 | 0.463
Calu-6 |  |  |  |  |  | 0.94 | 0.932 | 0.821 | 0.767 | 0.753 |  |  |  |  |  | 1.21 | 1.05 | 1.1 | 0.89 | 0.551
ChaGo-K-1 | 0.503 | 0.508 | 0.504 | 0.505 | 0.561 | 0.988 | 0.971 | 0.814 | 1 | 0.734 | 0.239 | 0.193 | 0.214 | 0.236 | 0.212 |  |  |  |  | 
EBC-1 |  |  |  |  |  | 0.0973 | 0.103 | 0.0999 | 0.104 | 0.102 |  |  |  |  |  | 0.241 | 0.195 | 0.209 | 0.216 | 0.265
EKVX |  | 0.383 | 0.327 | 0.297 | 0.336 | 0.801 | 0.673 | 0.574 | 0.874 | 0.582 | 0.392 | 0.358 | 0.409 | 0.414 | 0.373 | 0.209 | 0.196 | 0.219 | 0.242 | 0.186
EMC-BAC-2 | 1 | 0.926 | 0.964 | 0.9 | 1.04 | 1.05 | 0.944 | 0.856 | 1.05 | 0.949 | 0.281 | 0.284 | 0.288 | 0.292 | 0.316 | 1.04 | 0.902 | 0.97 | 1.01 | 0.873
EPLC-272H | 0.375 | 0.358 | 0.358 | 0.362 | 0.341 | 0.803 | 0.747 | 0.804 | 0.692 | 0.341 | 0.254 | 0.273 | 0.34 | 0.348 | 0.148 | 1.07 | 0.976 | 1.12 | 1.24 | 0.848
H3255 | 0.569 | 0.567 | 0.578 | 0.604 | 0.562 | 0.883 | 0.843 | 0.913 | 0.91 | 0.857 | 0.524 | 0.55 | 0.623 | 0.606 | 0.563 | 0.229 | 0.256 | 0.378 | 0.241 | 0.264

From the supplement of paper PMC10307832
